{"source": "ChEMBL document CHEMBL3044899", "about": "“Effect of chloro and fluoro groups on the antimicrobial activity of 2,5-disubstituted 4-thiazolidinones: a comparative study” (2012)", "key": {"Escherichia coli [1]": {"tested_on": "Escherichia coli", "assay": "Antibacterial activity against Escherichia coli MTCC 739 at 100 ug/ml by cup-plate method", "format": "functional", "details": "read-out: DIZ"}, "Escherichia coli [2]": {"tested_on": "Escherichia coli", "assay": "Antibacterial activity against Escherichia coli MTCC 739 at 50 ug/ml by cup-plate method", "format": "functional", "details": "read-out: DIZ"}, "Pseudomonas aeruginosa [3]": {"tested_on": "Pseudomonas aeruginosa", "assay": "Antibacterial activity against Pseudomonas aeruginosa MTCC 2453 at 300 ug/ml by cup-plate method", "format": "functional", "details": "read-out: DIZ"}, "Pseudomonas aeruginosa [4]": {"tested_on": "Pseudomonas aeruginosa", "assay": "Antibacterial activity against Pseudomonas aeruginosa MTCC 2453 at 100 ug/ml by cup-plate method", "format": "functional", "details": "read-out: DIZ"}, "Pseudomonas aeruginosa [5]": {"tested_on": "Pseudomonas aeruginosa", "assay": "Antibacterial activity against Pseudomonas aeruginosa MTCC 2453 at 200 ug/ml by cup-plate method", "format": "functional", "details": "read-out: DIZ"}, "Pseudomonas aeruginosa [6]": {"tested_on": "Pseudomonas aeruginosa", "assay": "Antibacterial activity against Pseudomonas aeruginosa MTCC 2453 at 50 ug/ml by cup-plate method", "format": "functional", "details": "read-out: DIZ"}, "Bacillus subtilis [7]": {"tested_on": "Bacillus subtilis", "assay": "Antibacterial activity against Bacillus subtilis MTCC 121 at 300 ug/ml by cup plate method", "format": "functional", "details": "read-out: DIZ"}, "Bacillus subtilis [8]": {"tested_on": "Bacillus subtilis", "assay": "Antibacterial activity against Bacillus subtilis MTCC 121 at 200 ug/ml by cup plate method", "format": "functional", "details": "read-out: DIZ"}, "Bacillus subtilis [9]": {"tested_on": "Bacillus subtilis", "assay": "Antibacterial activity against Bacillus subtilis MTCC 121 at 50 ug/ml by cup plate method", "format": "functional", "details": "read-out: DIZ"}, "Bacillus subtilis [10]": {"tested_on": "Bacillus subtilis", "assay": "Antibacterial activity against Bacillus subtilis MTCC 121 at 100 ug/ml by cup plate method", "format": "functional", "details": "read-out: DIZ"}, "Staphylococcus aureus [11]": {"tested_on": "Staphylococcus aureus", "assay": "Antibacterial activity against Staphylococcus aureus MTCC 96 at 300 ug/ml by cup-plate method", "format": "functional", "details": "read-out: DIZ"}, "Staphylococcus aureus [12]": {"tested_on": "Staphylococcus aureus", "assay": "Antibacterial activity against Staphylococcus aureus MTCC 96 at 200 ug/ml by cup-plate method", "format": "functional", "details": "read-out: DIZ"}, "Staphylococcus aureus [13]": {"tested_on": "Staphylococcus aureus", "assay": "Antibacterial activity against Staphylococcus aureus MTCC 96 at 100 ug/ml by cup-plate method", "format": "functional", "details": "read-out: DIZ"}, "Staphylococcus aureus [14]": {"tested_on": "Staphylococcus aureus", "assay": "Antibacterial activity against Staphylococcus aureus MTCC 96 at 50 ug/ml by cup-plate method", "format": "functional", "details": "read-out: DIZ"}, "Escherichia coli [15]": {"tested_on": "Escherichia coli", "assay": "Antibacterial activity against Escherichia coli MTCC 739 by cup-plate method", "format": "functional, organism-based"}, "Pseudomonas aeruginosa [16]": {"tested_on": "Pseudomonas aeruginosa", "assay": "Antibacterial activity against Pseudomonas aeruginosa MTCC 2453 by cup-plate method", "format": "functional, organism-based"}, "Bacillus subtilis [17]": {"tested_on": "Bacillus subtilis", "assay": "Antibacterial activity against Bacillus subtilis MTCC 121 by cup plate method", "format": "functional, organism-based"}, "Staphylococcus aureus [18]": {"tested_on": "Staphylococcus aureus", "assay": "Antibacterial activity against Staphylococcus aureus MTCC 96 by cup-plate method", "format": "functional, organism-based"}, "Candida albicans": {"tested_on": "Candida albicans", "assay": "Antifungal activity against Candida albicans MTCC 227 at 50 to 300 ug/ml by cup-plate method", "format": "functional, organism-based"}, "Escherichia coli [19]": {"tested_on": "Escherichia coli", "assay": "Antibacterial activity against Escherichia coli MTCC 739 at 300 ug/ml by cup-plate method", "format": "functional", "details": "read-out: DIZ"}, "Escherichia coli [20]": {"tested_on": "Escherichia coli", "assay": "Antibacterial activity against Escherichia coli MTCC 739 at 200 ug/ml by cup-plate method", "format": "functional", "details": "read-out: DIZ"}}, "note": "Activity calls are given as the source filed them. The calls are words filed in the database; no cut-off is given here.", "data": [{"smiles": "O=C1N/C(=N\\c2cccc(Cl)c2)S/C1=C\\c1ccc(O)cc1", "values": [{"measurement": "zone of inhibition at 100 µg/mL", "setting": "Escherichia coli [1]", "value": 7, "unit": "mm"}, {"measurement": "zone of inhibition at 50 µg/mL", "setting": "Escherichia coli [2]", "value": 7, "unit": "mm"}, {"measurement": "zone of inhibition at 300 µg/mL", "setting": "Pseudomonas aeruginosa [3]", "value": 10, "unit": "mm"}, {"measurement": "zone of inhibition at 100 µg/mL", "setting": "Pseudomonas aeruginosa [4]", "value": 8, "unit": "mm"}, {"measurement": "zone of inhibition at 200 µg/mL", "setting": "Pseudomonas aeruginosa [5]", "value": 9, "unit": "mm"}, {"measurement": "zone of inhibition at 50 µg/mL", "setting": "Pseudomonas aeruginosa [6]", "value": 7, "unit": "mm"}, {"measurement": "zone of inhibition at 300 µg/mL", "setting": "Bacillus subtilis [7]", "value": 9, "unit": "mm"}, {"measurement": "zone of inhibition at 200 µg/mL", "setting": "Bacillus subtilis [8]", "value": 8, "unit": "mm"}, {"measurement": "zone of inhibition at 50 µg/mL", "setting": "Bacillus subtilis [9]", "value": 6, "unit": "mm"}, {"measurement": "zone of inhibition at 100 µg/mL", "setting": "Bacillus subtilis [10]", "value": 7, "unit": "mm"}, {"measurement": "zone of inhibition at 300 µg/mL", "setting": "Staphylococcus aureus [11]", "value": 10, "unit": "mm"}, {"measurement": "zone of inhibition at 200 µg/mL", "setting": "Staphylococcus aureus [12]", "value": 9, "unit": "mm"}, {"measurement": "zone of inhibition at 100 µg/mL", "setting": "Staphylococcus aureus [13]", "value": 9, "unit": "mm"}, {"measurement": "zone of inhibition at 50 µg/mL", "setting": "Staphylococcus aureus [14]", "value": 8, "unit": "mm"}, {"measurement": "Activity", "setting": "Escherichia coli [15]", "value": "Dose-dependent effect"}, {"measurement": "Activity", "setting": "Pseudomonas aeruginosa [16]", "value": "Dose-dependent effect"}, {"measurement": "Activity", "setting": "Bacillus subtilis [17]", "value": "Dose-dependent effect"}, {"measurement": "Activity", "setting": "Staphylococcus aureus [18]", "value": "Dose-dependent effect"}, {"measurement": "Activity", "setting": "Candida albicans", "value": "inactive"}, {"measurement": "zone of inhibition at 300 µg/mL", "setting": "Escherichia coli [19]", "value": 9, "unit": "mm"}, {"measurement": "zone of inhibition at 200 µg/mL", "setting": "Escherichia coli [20]", "value": 8, "unit": "mm"}]}]}
